Data: patent US10376520B2, “Methods for the treatment of cardiovascular disorders” (Galapagos NV, priority 2015, dated 2019)

System: RA patients
Assay: Total cholesterol determination, Study 1 (RA patients with inadequate response to methotrexate, add-on to MTX)
Assay type: in vivo, human
Procedure: Double-blind, placebo-controlled add on study in subjects with moderately to severely active RA who have an inadequate response to methotrexate (MTX) (oral or parenteral).
595 subjects randomized to one of 6 dose regimens of Compound 1 (dosed as a [Compound 1:HCl:3H2O]) (3 dose levels administered either once or twice daily) or placebo on top of each subject's stable dose of MTX.
Compound 1 (dosed as a [Compound 1:HCl:3H2O]) is dosed for twelve weeks once daily (q.d.) (50 mg, 100 mg or 200 mg) or twice daily (b.i.d.) (25 mg, 50 mg or 100 mg); or placebo.
At Week 12, the subjects on placebo who have not achieved 20% improvement in swollen joint count (SJC66) and tender joint count (TJC68) are re-randomized automatically to receive Compound 1 (dosed as a [Compound 1:HCl:3H2O]) either at 100 mg q.d. or 50 mg b.i.d. doses in a blinded fashion; subjects on 50 mg q.d. who have not achieved 20% improvement in SJC66 and TJC68 will be assigned to 100 mg q.d. and subjects on 25 mg b.i.d. that have not achieved a 20% improvement in SJC66 and TJC68 will be assigned to 50 mg b.i.d. Subjects who switch treatment at week 12 are handled as if they discontinued at week 12 for the purpose of statistical analysis, whereas subjects in the other groups will maintain their randomized treatment until Week 24.
This method is based on the determination of Δ^4 cholestenone after enzymatic cleavage of the cholesterol ester by cholesterol esterase, conversion of cholesterol by cholesterol oxidase, and subsequent measurement by the Trinder reaction of the hydrogen peroxide formed (Allain et al., 1974).
Cholesterol esters are cleaved by the action of cholesterol esterase to yield free cholesterol and fatty acids. Cholesterol oxidase then catalyzes the oxidation of cholesterol to cholest-4-en-3-one and hydrogen peroxide. In the presence of peroxidase, the hydrogen peroxide formed effects the oxidative coupling of phenol and 4-aminophenazone to form a red quinone-imine dye. The color intensity of the dye formed is directly proportional to the cholesterol concentration. It is determined by measuring the increase in absorbance.
Human serum and plasma samples cholesterol determination was done on a Roche/Hitachi Cobas c 701/702 system which automatically calculate the analyte concentration of each sample.

[1] = Study 1 12 weeks results, 2 x 25 mg b.i.d., week 2
[2] = Study 1 12 weeks results, 2 x 25 mg b.i.d., week 4
[3] = Study 1 12 weeks results, 2 x 25 mg b.i.d., week 8
[4] = Study 1 12 weeks results, 2 x 25 mg b.i.d., week 12
[5] = Study 1 12 weeks results, 2 x 50 mg b.i.d., week 1
[6] = Study 1 12 weeks results, 2 x 50 mg b.i.d., week 2
[7] = Study 1 12 weeks results, 2 x 50 mg b.i.d., week 4
[8] = Study 1 12 weeks results, 2 x 50 mg b.i.d., week 8
[9] = Study 1 12 weeks results, 2 x 50 mg b.i.d., week 12
[10] = Study 1 12 weeks results, 2 x 100 mg b.i.d., week 1
[11] = Study 1 12 weeks results, 2 x 100 mg b.i.d., week 2
[12] = Study 1 12 weeks results, 2 x 100 mg b.i.d., week 4
[13] = Study 1 12 weeks results, 2 x 100 mg b.i.d., week 8
[14] = Study 1 12 weeks results, 2 x 100 mg b.i.d., week 12
[15] = Study 1 24 weeks results, continued 50 mg q.d., week 1
[16] = Study 1 24 weeks results, continued 50 mg q.d., week 2
[17] = Study 1 24 weeks results, continued 50 mg q.d., week 4
[18] = Study 1 24 weeks results, continued 50 mg q.d., week 8
[19] = Study 1 24 weeks results, continued 50 mg q.d., week 12
[20] = Study 1 24 weeks results, continued 50 mg q.d., week 16
[21] = Study 1 24 weeks results, continued 50 mg q.d., week 20
[22] = Study 1 24 weeks results, continued 50 mg q.d., week 24

O=C(Nc1nc2cccc(-c3ccc(CN4CCS(=O)(=O)CC4)cc3)n2n1)C1CC1 [Compound 1, cyclopropanecarboxylic acid {5-[4-(1,1-dioxo-thiomorpholin-4-ylmethyl)-phenyl]-[1,2,4]triazolo[1,5-a]pyridin-2yl}-amide]
[total cholesterol] Mean CFB (Study 1 12 weeks results, 2 x 25 mg b.i.d., week 1): 0.1 mmol/L
[Total cholesterol] Median CFB [1]: 0.10 mmol/L
[total cholesterol] Mean CFB [1]: 0.1 mmol/L
[Total cholesterol] Median CFB [2]: 0.05 mmol/L
[total cholesterol] Mean CFB [2]: 0.1 mmol/L
[Total cholesterol] Median CFB [3]: 0.05 mmol/L
[total cholesterol] Mean CFB [3]: 0.1 mmol/L
[Total cholesterol] Median CFB [4]: 0.13 mmol/L
[total cholesterol] Mean CFB [4]: 0.2 mmol/L
[Total cholesterol] Median CFB [5]: 0.21 mmol/L
[total cholesterol] Mean CFB [5]: 0.1 mmol/L
[Total cholesterol] Median CFB [6]: 0.18 mmol/L
[total cholesterol] Mean CFB [6]: 0.1 mmol/L
[Total cholesterol] Median CFB [7]: 0.28 mmol/L
[total cholesterol] Mean CFB [7]: 0.3 mmol/L
[Total cholesterol] Median CFB [8]: 0.22 mmol/L
[total cholesterol] Mean CFB [8]: 0.2 mmol/L
[Total cholesterol] Median CFB [9]: 0.23 mmol/L
[total cholesterol] Mean CFB [9]: 0.2 mmol/L
[Total cholesterol] Median CFB [10]: 0.28 mmol/L
[total cholesterol] Mean CFB [10]: 0.3 mmol/L
[Total cholesterol] Median CFB [11]: 0.31 mmol/L
[total cholesterol] Mean CFB [11]: 0.4 mmol/L
[Total cholesterol] Median CFB [12]: 0.45 mmol/L
[total cholesterol] Mean CFB [12]: 0.4 mmol/L
[Total cholesterol] Median CFB [13]: 0.55 mmol/L
[total cholesterol] Mean CFB [13]: 0.6 mmol/L
[Total cholesterol] Median CFB [14]: 0.80 mmol/L
[total cholesterol] Mean CFB [14]: 0.6 mmol/L
[total cholesterol] Mean CFB (Study 1 24 weeks results, continued 25 mg b.i.d, week 1): 0.11 mmol/L
[total cholesterol] Mean CFB (Study 1 24 weeks results, continued 25 mg b.i.d, week 2): 0.12 mmol/L
[total cholesterol] Mean CFB (Study 1 24 weeks results, continued 25 mg b.i.d, week 4): 0.14 mmol/L
[total cholesterol] Mean CFB (Study 1 24 weeks results, continued 25 mg b.i.d, week 8): 0.15 mmol/L
[total cholesterol] Mean CFB (Study 1 24 weeks results, continued 25 mg b.i.d, week 12): 0.26 mmol/L
[total cholesterol] Mean CFB (Study 1 24 weeks results, continued 25 mg b.i.d, week 16): 0.20 mmol/L
[total cholesterol] Mean CFB (Study 1 24 weeks results, continued 25 mg b.i.d, week 20): 0.27 mmol/L
[total cholesterol] Mean CFB (Study 1 24 weeks results, continued 25 mg b.i.d, week 24): 0.24 mmol/L
[total cholesterol] Mean CFB (Study 1 24 weeks results, continued 50 mg b.i.d., week 1): 0.15 mmol/L
[total cholesterol] Mean CFB (Study 1 24 weeks results, continued 50 mg b.i.d., week 2): 0.14 mmol/L
[total cholesterol] Mean CFB (Study 1 24 weeks results, continued 50 mg b.i.d., week 4): 0.28 mmol/L
[total cholesterol] Mean CFB (Study 1 24 weeks results, continued 50 mg b.i.d., week 8): 0.21 mmol/L
[total cholesterol] Mean CFB (Study 1 24 weeks results, continued 50 mg b.i.d., week 12): 0.23 mmol/L
[total cholesterol] Mean CFB (Study 1 24 weeks results, continued 50 mg b.i.d., week 16): 0.24 mmol/L
[total cholesterol] Mean CFB (Study 1 24 weeks results, continued 50 mg b.i.d., week 20): 0.32 mmol/L
[total cholesterol] Mean CFB (Study 1 24 weeks results, continued 50 mg b.i.d., week 24): 0.34 mmol/L
[Total cholesterol] Median CFB [15]: 0.00 mmol/L
[total cholesterol] Mean CFB [15]: 0.03 mmol/L
[Total cholesterol] Median CFB [16]: 0.00 mmol/L
[total cholesterol] Mean CFB [16]: -0.01 mmol/L
[Total cholesterol] Median CFB [17]: 0.05 mmol/L
[total cholesterol] Mean CFB [17]: 0.05 mmol/L
[Total cholesterol] Median CFB [18]: 0.20 mmol/L
[total cholesterol] Mean CFB [18]: 0.14 mmol/L
[Total cholesterol] Median CFB [19]: 0.25 mmol/L
[total cholesterol] Mean CFB [19]: 0.24 mmol/L
[Total cholesterol] Median CFB [20]: 0.25 mmol/L
[total cholesterol] Mean CFB [20]: 0.21 mmol/L
[Total cholesterol] Median CFB [21]: 0.25 mmol/L
[total cholesterol] Mean CFB [21]: 0.20 mmol/L
[Total cholesterol] Median CFB [22]: 0.30 mmol/L
[total cholesterol] Mean CFB [22]: 0.28 mmol/L
[total cholesterol] Mean CFB (Study 1 24 weeks results, continued 100 mg b.i.d., week 1): 0.30 mmol/L
